Each structure is given as a SMILES string. Where a name gives a salt, the structure may show the parent alone. Read-outs that look alike come from different tables or passages of the source.

In data set [1] the target is T1, human OX2 receptor (Homo sapiens, UniProt O43614).
T1 construct: expressed in transfected cells
T1 sequence (O43614 1-444): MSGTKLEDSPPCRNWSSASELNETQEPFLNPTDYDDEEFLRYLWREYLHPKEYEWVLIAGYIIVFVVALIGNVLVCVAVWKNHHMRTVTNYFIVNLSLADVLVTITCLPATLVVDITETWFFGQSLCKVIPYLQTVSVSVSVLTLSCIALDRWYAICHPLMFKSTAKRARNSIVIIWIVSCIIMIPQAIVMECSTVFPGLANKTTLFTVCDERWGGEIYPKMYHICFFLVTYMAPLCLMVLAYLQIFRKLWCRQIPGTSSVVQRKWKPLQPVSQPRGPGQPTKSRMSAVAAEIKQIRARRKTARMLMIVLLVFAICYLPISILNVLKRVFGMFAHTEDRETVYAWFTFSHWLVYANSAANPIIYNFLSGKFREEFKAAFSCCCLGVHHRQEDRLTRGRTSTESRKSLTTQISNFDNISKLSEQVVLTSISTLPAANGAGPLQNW
Kind of data set: Measurement of orexin type 2 receptor agonist activity (Experimental Example 3; calcium 5 dye, FLIPR Tetra). The format is cell-based. The settings on record: compound at 1 μM; CHO cells expressing human OX2 receptor; DMSO = 0%, 10 nM orexin A (human) = 100%. On the procedure: In order to obtain cell clones that stably express human orexin type 2 receptor, human orexin type 2 (residues 1-444, NCBI Reference Sequence: AK314279) was constructed in a pcDNA3.1 (+) vector (Invitrogen) to express in mammalian cells. This plasmid DNA was transfected into CHO-K1 cells by electroporation, and stable clones were obtained by limiting dilution using resistance to G418 as a selection marker.
CHO cells in which human OX2 receptor was forcibly expressed were seeded at 5,000 cells/well into a 384-well black transparent bottom plate (Costar) in 25 ul complete media, and were then incubated at 37° C., 5% CO2 for 1 day. The next day, 25 ul of 2× calcium 5 dye (Molecular Devices) in assay buffer (HBSS (Thermo Fisher Scientific), 20 mM HEPES (Thermo Fisher Scientific), 2.5 mM probenecid). After incubation in a 5% CO2 incubator at 37° C. for 40 minutes, it was incubated at room temperature for another 20 minutes. Add 5 μL/well of the test compound diluted with assay buffer B (HBSS, 20 mM HEPES), using FLIPR Tetra (Molecular Devices) to measure the fluorescence value every 1 second for 1 minute, and then every 2 seconds for 1 minute. It was measured for 1 minute and 40 seconds. The amount of fluorescence value when DMSO is added instead of the test compound is defined as 0%, and the amount of fluorescence value when orexin A (human) (Peptide Institute) with a final concentration of 10 nM is added is defined as 100%. The activity (%) of the test compound was calculated.

In data set [2] the target is T1, human OX2 receptor. Kind of data set: Measurement of orexin type 2 receptor agonist activity (Experimental Example 2; Fluo-4 AM calcium fluorescence, FDSS μCELL). It counts as cell-based. The settings on record: compound at 3 μM; CHO cells expressing human OX2 receptor; DMSO = 0%, 10 nM orexin A (human) = 100%. An outline of the steps: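 Agonism was tested in CHO-K1 cells stably expressing human OX2 receptor (residues 1-444), loaded with Fluo-4 AM plus probenecid. Calcium fluorescence was recorded for 1 min 40 s after compound addition. Activity (%) was scaled between DMSO (0%) and 10 nM orexin A (100%) and reported at 3 μM compound.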

Regarding `CCS(=O)(=O)N[C@@H]1[C@@H]2Cc3cccc(c3F)[C@@H](C)c3nc(ccc3C)CNC(=O)N2CC1(F)F` (single isomer, unassigned) [Example 105, N-[(9R,15aS,16R)-17,17,20-trifluoro-7,9-dimethyl-1-oxo-2,3,15a,16,17,18-hexahydro-1H,9H,15H-4,8-(azeno)-10,14-(metheno)pyrrolo[1,2-c][1,3]diazacycloheptadecin-16-yl]ethanesulfonamide or N-[(9S,15aS,16R)-17,17,20-trifluoro-7,9-dimethyl-1-oxo-2,3,15a,16,17,18-hexahydro-1H,9H,15H-4,8-(azeno)-10,14-(metheno)pyrrolo[1,2-c][1,3]diazacycloheptadecin-16-yl]ethanesulfonamide], on human OX2 receptor [1], the “OX2R agonist activity (1 μM, %)” value came to 106%. In the case of `CCS(=O)(=O)N[C@@H]1[C@@H]2Cc3ccc(C)c(c3F)Oc3nc(ccc3C)CNC(=O)N2CC1(F)F` [Example 101, N-[(15aS,16R)-17,17,20-trifluoro-7,11-dimethyl-1-oxo-2,3,15a,16,17,18-hexahydro-1H,15H-4,8-(azeno)-10,14-(metheno)pyrrolo[1,2-j][1,8,10]oxadiazacyclohept-adecin-16-yl]ethanesulfonamide], the “OX2R agonist activity (1 μM, %)” value on human OX2 receptor [1] is recorded as 108%. `CCS(=O)(=O)N[C@@H]1[C@@H]2Cc3cccc(c3F)Cc3nc(ccc3C)CNC(=O)N2CC1(F)F` [Example 104, N-[(15aS,16R)-17,17,20-trifluoro-7-methyl-1-oxo-2,3,15a,16,17,18-hexahydro-1H,9H,15H-4,8-(azeno)-10,14-(metheno)pyrrolo[1,2-c][1,3]diazacycloheptadecin-16-yl]ethanesulfonamide hydrochloride]: the “OX2R agonist activity (1 μM, %)” value on human OX2 receptor [1] amounted to 109%. Take `CCS(=O)(=O)N[C@@H]1[C@@H]2Cc3c(C)ccc(c3F)Oc3nc(ccc3C)CNC(=O)N2CC1(F)F` [Example 98, N-[(15aS,16R)-17,17,20-trifluoro-7,13-dimethyl-1-oxo-2,3,15a,16,17,18-hexahydro-1H,15H-4,8-(azeno)-14,10-(metheno)pyrrolo[1,2-j][1,8,10]oxadiazacyclo-heptadecin-16-yl]ethanesulfonamide]: the “OX2R agonist activity (1 μM, %)” value at human OX2 receptor [1] is 65%.

`Cc1ccc2nc1Oc1cccc(c1F)C[C@H]1[C@@H](NS(C)(=O)=O)C(F)(F)CN1C(=O)NC2` [Example 4, N-[(15aS,16R)-17,17,20-trifluoro-7-methyl-1-oxo-2,3,15a,16,17,18-hexahydro-1H,15H-4,8-(azeno)-10,14-(metheno)pyrrolo[1,2-j][1,8,10]oxadiazacyclo-heptadecin-16-yl]methanesulfonamide]: the ring closure, yield of all isomers (from Cc1ccc(CN)nc1Oc1cccc(C[C@@H]2NCC(F)(F)[C@@H]2NS(C)(=O)=O)c1F, other bond, di(N-succinimidyl) carbonate/DIPEA, THF, 7.42 mM, 25.0 °C, 16.0 h) came out at 40.1%. The “OX2R agonist activity (3 μM, %)” value on human OX2 receptor [2] stood at 105%. The compound `Cc1ccc2nc1Oc1cccc(c1)C[C@H]1[C@@H](NS(C)(=O)=O)CCN1C(=O)CO2` [Example 33, N-[(15aS,16S)-7-methyl-1-oxo-1,2,15a,16,17,18-hexahydro-15H-4,8-(azeno)-10,14-(metheno)pyrrolo[1,2-d][1,12,4]dioxazacyclo-heptadecin-16-yl]methanesulfonamide] showed a ring closure, yield of all isomers (from Cc1ccc(OCC(=O)O)nc1Oc1cccc(C[C@@H]2NCC[C@@H]2NS(C)(=O)=O)c1, amide bond, PyBOP, THF, 0.92 mM, 25.0 °C, 12.0 h) of 3.4%. The “OX2R agonist activity (3 μM, %)” value at human OX2 receptor [2] is reported as 102%. The compound `CCS(=O)(=O)N[C@H]1[C@@H](F)CN2C(=O)NCc3ccc(C)c(n3)Cc3cccc(c3F)C[C@@H]12` [Example 56, N-[(15aS,16R,17S)-17,20-difluoro-7-methyl-1-oxo-2,3,15a,16,17,18-hexahydro-1H,9H,15H-8,4-(azeno)-10,14-(metheno)pyrrolo[1,2-c][1,3]diazacycloheptadecin-16-yl]ethanesulfonamide] had a ring closure, yield of all isomers (from CCS(=O)(=O)N[C@@H]1[C@H](Cc2cccc(Cc3nc(CN)ccc3C)c2F)NC[C@@H]1F, other bond, di(N-succinimidyl) carbonate / 4-methylmorpholine, DIPEA, THF, 4.1 mM, 25.0 °C, 17.0 h) of 3.9%. In addition, the “OX2R agonist activity (3 μM, %)” value on human OX2 receptor [2] amounted to 100%. For `Cc1ccc2nc1COc1cccc(c1F)C[C@H]1[C@@H](NS(C)(=O)=O)C(F)(F)CN1C(=O)NC2` [Example 54, N-[(16aS,17R)-18,18,21-trifluoro-7-methyl-1-oxo-2,3,16a,17,18,19-hexahydro-1H,9H,16H-4,8-(azeno)-11,15-(metheno)pyrrolo[2,1-h][1,9,11]oxadiazacyclo-octadecin-17-yl]methanesulfonamide], the ring closure, yield of all isomers (from Cc1ccc(CNC(=O)OC(C)(C)C)nc1COc1cccc(C[C@H]2[C@@H](NS(C)(=O)=O)C(F)(F)CN2C(=O)OC(C)(C)C)c1F, other bond, di(N-succinimidyl) carbonate / N-methylmorpholine, DIPEA, THF, 2.78 mM, 60.0 °C, 22.0 h, 2 steps) worked out at 14.4%. For the same compound, the “OX2R agonist activity (3 μM, %)” value on human OX2 receptor [2] stood at 87%.

As to `Cc1ccc2nc1Oc1cccc(c1)C[C@H]1[C@@H](NS(C)(=O)=O)C(F)(F)CN1C(=O)NC2` [Example 2, N-[(15aS,16R)-17,17-difluoro-7-methyl-1-oxo-2,3,15a,16,17,18-hexahydro-1H,15H-4,8-(azeno)-10,14-(metheno)pyrrolo[1,2-j][1,8,10]oxadiazacyclo-heptadecin-16-yl]methanesulfonamide], for the setting “from Cc1ccc(CN)nc1Oc1cccc(C[C@@H]2NCC(F)(F)[C@@H]2NS(C)(=O)=O)c1, other bond, CDI/DIPEA, DMF, 2.0 mM, 25.0 °C, 14.0 h”, the ring closure, yield of all isomers worked out at 7.6%. For the same compound, the “OX2R agonist activity (3 μM, %)” value on human OX2 receptor [2] amounted to 96%. As for `CCS(=O)(=O)N[C@@H]1[C@@H]2Cc3cccc(c3F)Oc3nc(ccc3C)CNC(=O)N2CC1(F)F` [Example 5, N-[(15aS,16R)-17,17,20-trifluoro-7-methyl-1-oxo-2,3,15a,16,17,18-hexahydro-1H,15H-4,8-(azeno)-10,14-(metheno)pyrrolo[1,2-j][1,8,10]oxadiazacyclo-heptadecin-16-yl]ethanesulfonamide], the ring closure, yield of all isomers (from CCS(=O)(=O)N[C@@H]1[C@H](Cc2cccc(Oc3nc(CN)ccc3C)c2F)NCC1(F)F, other bond, di(N-succinimidyl) carbonate/4-methylmorpholine/DIPEA, THF, 1.81 mM, 25.0 °C, 12.0 h) was 21%. Besides, the “OX2R agonist activity (3 μM, %)” value at human OX2 receptor [2] came to 102%. For the setting “from NCc1ccc(Cl)c(Oc2cccc(C[C@@H]3NCC(F)(F)[C@@H]3NS(=O)(=O)C3CC3)c2F)n1, other bond, di(N-succinimidyl) carbonate, THF, 1.85 mM, 25.0 °C, 0.08 h”, `O=C1NCc2ccc(Cl)c(n2)Oc2cccc(c2F)C[C@H]2[C@@H](NS(=O)(=O)C3CC3)C(F)(F)CN12` [Example 22, N-[(15aS,16R)-7-chloro-17,17,20-trifluoro-1-oxo-2,3,15a,16,17,18-hexahydro-1H,15H-4,8-(azeno)-14,10-(metheno)pyrrolo[1,2-j][1,8,10]oxadiazacyclo-heptadecin-16-yl]cyclopropanesulfonamide] came in with a ring closure, yield of all isomers of 49.4%. For the same compound, the “OX2R agonist activity (3 μM, %)” value at human OX2 receptor [2] is 100%. Take `Cc1ccc2nc1Oc1cccc(c1F)C[C@H]1[C@@H](NS(C)(=O)=O)C(F)(F)CN1C(=O)NC2C` (stereo partly drawn) [Example 51, N-[(15aS,16R)-17,17,20-trifluoro-3,7-dimethyl-1-oxo-2,3,15a,16,17,18-hexahydro-1H,15H-4,8-(azeno)-14,10-(metheno)pyrrolo[1,2-j][1,8,10]oxadiazacyclo-heptadecin-16-yl]methanesulfonamide (optical isomer)]: the ring closure, yield of all isomers (from Cc1ccc(C(C)N)nc1Oc1cccc(C[C@@H]2NCC(F)(F)[C@@H]2NS(C)(=O)=O)c1F, other bond, di(N-succinimidyl) carbonate, THF, 1.23 mM, 60.0 °C) is 7.7%. Also, the “OX2R agonist activity (3 μM, %)” value at human OX2 receptor [2] is recorded as 103%. In turn, `Cc1ccc2nc1Oc1cccc(c1)C[C@H]1[C@@H](NS(C)(=O)=O)CCN1C(=O)NC2` [Example 1, N-[(15aS,16S)-7-methyl-1-oxo-2,3,15a,16,17,18-hexahydro-1H,15H-4,8-(azeno)-10,14-(metheno)pyrrolo[1,2-j][1,8,10]oxadiazacyclo-heptadecin-16-yl]methanesulfonamide] displayed a ring closure, yield of all isomers (from Cc1ccc(CN)nc1Oc1cccc(C[C@@H]2NCC[C@@H]2NS(C)(=O)=O)c1, other bond, CDI/DIPEA, DMF, 2.15 mM, 25.0 °C, 12.0 h) of 29.9%. Also, on human OX2 receptor [2], the “OX2R agonist activity (3 μM, %)” value came to 107%.

For the origin of these results see patent US20240309016A1, “MACROCYCLIC HETEROCYCLE COMPOUNDS AND USE THEREOF” (TAKEDA PHARMACEUTICAL COMPANY LIMITED, priority 2023, published 2024).
